According to PubChem BioAssay (NCI):
Values joined by “and” are separate entries in the source; they are usually repeats but may differ in a detail not shown here. Equal entries are not always repeated.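 Step 1: Grow cells in 96-well plates. Step 2: Expose to compound for 48 hours at 5 concentrations. Step 3: Interpolate endpoints linearly; if unreached, use highest concentration. At the GI50, growth is halved. TGI denotes the concentration required for complete inhibition of growth.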

Columns and labels:
Assay in all cases: DTP human tumour cell line panel, 48 h
DLD-1 colon = tested on: DLD-1 colon
DMS 114 small cell lung = tested on: DMS 114 small cell lung
HCT-116 colon = tested on: HCT-116 colon
HT29 colon = tested on: HT29 colon
K-562 leukemia = tested on: K-562 leukemia
LOX IMVI melanoma = tested on: LOX IMVI melanoma
NCI-H522 lung = tested on: NCI-H522 lung
SW-620 colon = tested on: SW-620 colon
TK-10 renal = tested on: TK-10 renal
U251 CNS = tested on: U251 CNS

| Structure (SMILES) | TGI (DLD-1 colon) [µM] | TGI (DMS 114 small cell lung) [µM] | TGI (HCT-116 colon) | TGI (HT29 colon) | TGI (K-562 leukemia) | TGI (LOX IMVI melanoma) | TGI (NCI-H522 lung) [µM] | TGI (SW-620 colon) | TGI (TK-10 renal) [µM] | TGI (U251 CNS) | GI50 (TK-10 renal) | GI50 (U251 CNS) |
| --- | --- | --- | --- | --- | --- | --- | --- | --- | --- | --- | --- | --- |
| CN(C)c1ccc(-c2cc(=O)c3ccccc3[nH]2)cc1 | > 100 | > 100 | > 100 µM | > 100 µM | > 100 µM | > 100 µM | > 100 | > 100 µM | > 100 | > 100 µM |  |  |
| CN(C)CCCCN1CCc2c(n(C)c3ccccc23)C1=O | > 100 | > 100 | 75.6 µM and 45.1 µM | 63.4 µM and 37.9 µM | 51.9 µM and > 59.4 µM | > 72.9 µM and 42.8 µM | > 82 | > 81.6 µM and 63.9 µM | > 100 | 99.5 µM and > 60.1 µM | > 100 µM and 38.8 µM | 72.4 µM and 34.1 µM |
| CC(=O)N(C)OC(=O)CC(=O)c1ccccc1 | > 100 | > 100 | > 100 µM | > 100 µM | > 100 µM | > 100 µM | > 100 | > 100 µM | > 100 | > 100 µM |  |  |
| CC(Cn1c2c3ccccc3ccc2c2oc(=O)c3ccccc3c21)N(C)C (configuration not stated) | > 100 | > 100 | > 100 µM | > 100 µM | > 100 µM | > 100 µM | > 100 | > 100 µM | > 100 | > 100 µM |  |  |
| O=C(Nc1ccc(Cl)c(C(F)(F)F)c1)C(=O)C(C(=O)/C=C/c1ccccc1)C1OC(=O)c2ccccc21 (configuration not stated) | > 100 | > 100 | > 100 µM | > 100 µM | > 100 µM | > 100 µM | > 100 | > 100 µM | > 100 | > 100 µM |  |  |
| O=C1C2C(C(=O)N1O)N(Cc1ccccc1)C(=O)N2Cc1ccccc1 (configuration not stated) | > 100 | > 100 | > 100 µM | > 100 µM | > 100 µM | > 100 µM | > 100 | > 100 µM | > 100 | > 100 µM |  |  |
| CC(C)C(C(=O)O)N(CC1(O)OCC(O)C(O)C1O)N=O (configuration not stated) | > 100 | > 100 | > 100 µM | > 100 µM | > 100 µM | > 100 µM | > 100 | > 100 µM | > 100 | > 100 µM |  |  |
| CCN1C(=O)C/C(=C\C(C)=O)Nc2ccccc21 | 44.7 | > 100 | > 100 µM | > 100 µM | > 100 µM | > 100 µM | > 100 | > 100 µM | > 100 | > 100 µM |  |  |
| Cc1ccc(NC(=O)c2[nH]c(=S)nc(N)c2-c2ccccc2C)cc1C | > 100 | > 100 | > 100 µM | > 100 µM | > 100 µM | > 100 µM | > 100 | > 100 µM | > 100 | > 100 µM |  |  |
